Assay results published in ChEMBL document CHEMBL1127429, “4-Deacetyltaxol and 10-acetyl-4-deacetyltaxotere: synthesis and biological evaluation” (J Med Chem, 1994).

Legend:
[1] = In vitro binding affinity to reduce the supernatant protein concentration of the microtubule
[2] = Ratio of ED50 to that of taxol.

ED50 [1] [µM] | Ratio [2] | SMILES
> 30 | > 32 | CC(=O)O[C@H]1C(=O)[C@@]2(C)[C@H]([C@H](OC(=O)c3ccccc3)[C@]3(O)C[C@H](OC(=O)[C@H](O)[C@@H](NC(=O)OC(C)(C)C)c4ccccc4)C(C)=C1C3(C)C)[C@]1(O)CO[C@@H]1C[C@@H]2O
> 30 | > 32 | CC(=O)O[C@H]1C(=O)[C@@]2(C)[C@H]([C@H](OC(=O)c3ccccc3)[C@]3(O)C[C@H](OC(=O)[C@H](O)[C@@H](NC(=O)c4ccccc4)c4ccccc4)C(C)=C1C3(C)C)[C@]1(O)CO[C@@H]1C[C@@H]2O
0.93 | 1 | CC(=O)O[C@H]1C(=O)[C@@]2(C)[C@H]([C@H](OC(=O)c3ccccc3)[C@]3(O)C[C@H](OC(=O)[C@H](O)[C@@H](NC(=O)c4ccccc4)c4ccccc4)C(C)=C1C3(C)C)[C@]1(OC(C)=O)CO[C@@H]1C[C@@H]2O
